# Laboratory results published in publication PMC12554789, “Benzoxazole Derivatives as Potent FXR and PPARα Dual Agonists With Anti‐Fibrotic and Metabolic Regulatory Effects” (MedComm, 2025).
# How the values were obtained:
# FXR LBD = target: T1, FXR LBD (Homo sapiens, UniProt Q96RI1); experiment: Thermal shift assay, FXR LBD; assay type: binding; conditions: ligand 20 µM
# T1 construct: purchased Sigma SRP2137
# T1 sequence (Q96RI1 262-486 limits assumed): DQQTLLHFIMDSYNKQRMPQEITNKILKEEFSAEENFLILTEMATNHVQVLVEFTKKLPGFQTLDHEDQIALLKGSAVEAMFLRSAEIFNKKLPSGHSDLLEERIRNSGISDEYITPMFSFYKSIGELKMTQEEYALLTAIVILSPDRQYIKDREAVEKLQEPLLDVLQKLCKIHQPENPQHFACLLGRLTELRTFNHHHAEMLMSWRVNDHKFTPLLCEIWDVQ
# [1] = tested on: TAA-induced liver fibrosis model; experiment: TAA-induced liver fibrosis mouse model (8 weeks); assay type: in vivo
# Procedure: To further explore the effects on fibrosis suppression, a thioacetamide (TAA)-induced liver fibrosis model was used. Liver fibrosis was induced by intraperitoneal injection of TAA at a dose of 150 mg/kg, administered three times a week for 8 weeks. […] After the treatment period, the mice were euthanized using CO2. Serum was collected for biochemical analysis, and liver tissues were immediately harvested and frozen in liquid nitrogen for subsequent quantitative reverse transcription polymerase chain reaction (qRT-PCR), western blotting, and biological analysis. Furthermore, some liver samples were fixed in 4% paraformaldehyde buffered to neutral pH for histochemical analysis. For long-term storage, remaining liver samples were stored at -80°C in a deep freezer. […] Liver fibrosis was induced by administering TAA intraperitoneally at a dose of 150 mg/kg three times a week for a duration of […]. […] Upon completion of the treatment period, mice were euthanized using CO2, and serum and liver tissue samples were harvested for subsequent evaluation. Serum samples collected from mice were incubated at room temperature for 20 min before being centrifuged at 3000 rpm for 20 min to separate blood cells and clotting factors. Serum alanine transaminase (ALT) and aspartate aminotransferase (AST) activities were measured using ALT and AST assay kits (Asan Pharm, Seoul, Republic of Korea) to assess liver injury. Blood urea nitrogen (BUN) levels in the serum were analyzed using a commercial assay kit ([…]-BUN, […] Diagnostics, Seoul, Republic of Korea; catalog number 1120171) following the manufacturer's guidelines. Creatinine levels in the serum were quantified using the […] assay kit ([…] Diagnostics; catalog number 1120051) in accordance with the manufacturer's instructions. Liver and kidney tissues were processed to detect histological changes through the following procedures. The tissues were fixed in 4% paraformaldehyde, and paraffin-embedded sections were prepared for H&E staining according to standard procedures. […]
# PPARα LBD = target: T2, PPARα LBD (Homo sapiens, UniProt Q07869); experiment: Thermal shift assay, PPARα LBD; assay type: binding; conditions: ligand 20 µM
# T2 construct: purchased Sigma SRP2054
# T2 sequence (Q07869 239-466 limits assumed): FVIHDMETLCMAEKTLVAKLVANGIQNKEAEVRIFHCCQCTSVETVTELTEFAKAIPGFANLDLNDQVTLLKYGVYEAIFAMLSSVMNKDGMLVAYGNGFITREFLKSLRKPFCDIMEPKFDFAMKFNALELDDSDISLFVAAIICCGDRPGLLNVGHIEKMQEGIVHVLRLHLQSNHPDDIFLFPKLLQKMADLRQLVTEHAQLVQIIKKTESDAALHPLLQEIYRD
compound,measurement,setting,value
"CC[C@H]1[C@@H](O)[C@@H]2[C@H](CC[C@]3(C)[C@@H]([C@H](C)CCC(=O)O)CC[C@@H]23)[C@@]2(C)CC[C@@H](O)C[C@@H]12 [OCA, obeticholic acid]",Melting temperature of FXR LBD,FXR LBD,altered
same,Damaged hepatocytes (H&E),[1]; TAA mice,fewer damaged hepatocytes
same,Serum AST level,"[1]; TAA mice, oral 3 mg/kg daily, increase still higher than in MHY5396 group",smaller increase in AST levels than that in the TAA group
same,Protection against fibrosis,"[1]; TAA model, MHY5396 versus OCA",protective effects against fibrosis
CC(C)(Oc1ccc(C(=O)c2ccc(Cl)cc2)cc1)C(=O)O [fenofibric acid],Melting temperature of PPARα LBD,PPARα LBD,altered
